# Assay results reported in patent publication US5846942A, “Cholecystokinin antagonists, their preparation and therapeutic use” (Warner-Lambert Company, priority 1996, dated 1998).
# Target: T1, Central CCK Receptors (Mus musculus, UniProt P56481)
# T1 construct: from tissue; host or cells: cerebral cortex membranes of male CFLP mice (30-40 g)
# T1 sequence (P56481 1-453): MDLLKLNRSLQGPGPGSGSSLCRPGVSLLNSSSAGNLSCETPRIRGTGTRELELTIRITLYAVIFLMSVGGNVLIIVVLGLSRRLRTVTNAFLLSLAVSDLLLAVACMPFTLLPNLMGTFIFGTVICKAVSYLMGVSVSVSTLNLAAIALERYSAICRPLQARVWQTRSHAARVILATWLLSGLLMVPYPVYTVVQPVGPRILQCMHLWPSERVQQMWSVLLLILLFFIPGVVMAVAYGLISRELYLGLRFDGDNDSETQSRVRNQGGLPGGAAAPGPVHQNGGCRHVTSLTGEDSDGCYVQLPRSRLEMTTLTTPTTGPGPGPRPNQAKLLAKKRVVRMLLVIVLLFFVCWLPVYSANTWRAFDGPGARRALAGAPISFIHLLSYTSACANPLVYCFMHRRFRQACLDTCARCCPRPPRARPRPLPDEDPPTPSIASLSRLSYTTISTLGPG
# Experiment: Binding to central CCK receptors, displacement of tritiated pentagastrin from cerebral cortical membranes of male CFLP mice
# Set-up: species or system mouse (male CFLP)
# Settings: cerebral cortexes taken from male CFLP mice; 2 nM tritiated-pentagastrin
# Method: The biological activity of compounds of the present invention was evaluated employing an initial screening test which rapidly and accurately measured the binding of the tested compound to known CCK receptor sites. […] (See Hays et al, Neuropeptides 1:53-62, 1980; and Satuer et al, Science 208:1155-1156, 1980).
# In this screening test, the cerebral cortices taken from male CFLP mice weighing between 30-40 g were dissected on ice, weighed, and homogenized in 10 volumes of 50 mM Tris-HCl buffer (pH 7.4 at 0°-4° C.). The resulting suspension was centrifuged, the supernate was discarded, and the pellet was washed by resuspension in Tris-HCl buffer followed by recentrifugation. The final pellet was resuspended in 20 volumes of […] Hepes buffer (pH 7.2 at 23° C.) containing 130 mM NaCl, […] KCl, […] MgCl2, […] EDTA, 5 mg/mL bovine albumin, and bacitracin (0.25 mg/mL).
# In saturation studies, cerebral cortical membranes were incubated at 23° C. for 120 minutes in a final volume of 500 μL of Hepes incubation buffer (pH 7.2) together with […] tritiated-pentagastrin (Amersham International, England).
# In the displacement experiments, membranes were incubated with a single concentration (2 nM) of ligand, together with increasing concentrations (10^-11 to […]) of competitive test compound. In each case, the nonspecific binding was defined as that persisting in the presence of the unlabeled octapeptide CCK26-33 (10^-6 M)
# Following incubation, radioactivity bound to membranes was separated from that free in solution by rapid filtration through Whatman GF/B filters and washed three times with 4 mL of ice cold Tris-HCl buffer. Filters from samples incubated with tritiated-pentagastrin were placed in polyethylene vials with 4 mL of scintillation cocktail, and the radioactivity was estimated by liquid scintillation spectrometry (efficiency 47-52%).
# Saturation curves for specific tritiated- pentagastrin binding to mouse cortical membranes were analyzed by the methods of Scatchard (Ann. New York Acad. Sci. 51:660-672, 1949, and Hill (J. Physiol. 40:IV-VIII, 1910), to provide estimates for the maximum number of binding sites (Bmax) and the equilibrium dissociation constant (Ka).
# In displacement experiments, inhibition curves were analyzed by either logit-log plots or the iterative curve fitting computer program ALLFIT (DeLean, Munson and Redbard, 1978) to provide estimates of the IC50 and nH (apparent Hill coefficient) values).
# The inhibition constant (Ki) of the test compound was then calculated according to the Cheng-Prusoff equation: [formula] where [L] is the concentration of radiolabel and Ka is the equilibrium dissociation constant.
row,SMILES,Ki
1,C[C@](Cc1c[nH]c2ccccc12)(NC(=O)OC1C2CC3CC(C2)CC1C3)C(=S)NCCc1ccccc1 (stereo partly shown) [Example 9],808 nM
2,N#CC(=Cc1c[nH]c2ccccc12)C(=O)NCCc1ccccc1 [Example 58],110 nM
3,"C[C@](CNC(=O)CCCc1ccccc1)(Cc1c[nH]c2ccccc12)NC(=O)OC1C2CC3CC(C2)CC1C3 (stereo partly drawn) [Example 19, Carbamic acid, [1-(1H-indol-3-ylmethyl)-1-methyl-2-[(1-oxo-4-phenylbutyl)amino]ethyl]-, tricyclo-[3.3.1.1^3,7]dec-2-yl ester (R)-]",353 nM
4,"C[C@](Cc1c[nH]c2ccccc12)(NC(=O)OC1C2CC3CC(C2)CC1C3)C(=O)NC1CC2CCC1C2 (stereo partly shown) [Example 118, Tricyclo[3.3.1.1^3,7]dec-2yl ester [2-(bicyclo[2.2.1]hept-2-ylamino)-1-(1H-indol-3-ylmethyl)-1-methyl-2-oxoethyl]carbamate]",53 nM
5,"C[C@](Cc1c[nH]c2ccccc12)(NC(=O)OC1C2CC3CC(C2)CC1C3)C(=O)N[C@H](C(=O)O)c1ccccc1 (stereo partly drawn) [Example 91, [R-(R*,S)]-α-[[3-(1H-indol-3-yl)-2-methyl-1-oxo-2-[[(tricyclo[3.3.1.1^3,7]dec-2-yloxy)carbonyl]amino]proipyl]amino]benzeneacetic acid, [R-(R*,S*)]-]",110 nM
6,"C[C@@](Cc1c[nH]c2ccccc12)(NC(=O)OC1C2CC3CC(C2)CC1C3)C(=O)NCCC(=O)N[C@@H](Cc1ccccc1)C(=O)O (stereo partly drawn) [Example 34, L-Phenylalanine, N-[N-[α-methyl-N-[(tricyclo-[3.3.1.1^3,7]dec-2-yloxy)carbonyl]-L-tryptophyl]-β-alanyl]-]",560 nM
7,"O=C(N[C@@H](CN[C@H](CO)Cc1ccccc1)Cc1c[nH]c2ccccc12)OC1C2CC3CC(C2)CC1C3 (stereo partly drawn) [Example 1, Tricyclo[3.3.1.1^3,7]dec-2-yl[S-(R)]-[2-[[1 - (hydroxy-methyl)-2-phenylethyl]amino]-1-(1H-indol-3-ylmethyl)ethyl]carbamate]",11500 nM
8,C[C@](Cc1c[nH]c2ccccc12)(NC(=O)OC1C2CC3CC(C2)CC1C3)C(=O)NCC(=O)OCc1ccccc1 (stereo partly shown) [Example 36],50 nM
9,"C[C@@](Cc1c[nH]c2ccccc12)(NC(=O)OC1C2CC3CC(C2)CC1C3)C(=O)NCCC(=O)N[C@@H](Cc1ccccc1)C(=O)OCc1ccccc1 (stereo partly drawn) [Example 31, Propanoic acid, 2-[[3-[[3-(1H-indol-3-yl)-2-methyl-1-oxo-2-[[(tricyclo[3.3.1.1^3,7]dec-2-yloxy)carbonyl]amino]propyl]amino]-1-oxopropyl]-amino]-3-phenyl-, phenylmethyl ester, [S-(R*,R*)]-]",1200 nM
10,C[C@](CNC(=O)CCc1ccccc1)(Cc1c[nH]c2ccccc12)NC(=O)OC1C2CC3CC(C2)CC1C3 (stereo partly shown) [Example 21],> 100 nM
11,C[C@](Cc1c[nH]c2ccccc12)(NC(=O)OC1C2CC3CC(C2)CC1C3)C(=O)NC1(CO)CCCCC1 (stereo partly shown) [Example 122],59 nM
12,"C[C@](CNC(=O)Cc1ccccc1)(Cc1c[nH]c2ccccc12)NC(=O)OC1C2CC3CC(C2)CC1C3 (stereo partly drawn) [Example 22, Carbamic acid, [1-(1H-indol-3-ylmethyl)-1-methyl-2-[(2-phenylacetyl)amino]ethyl]-, tricyclo[3.3.1.1^3,7]-dec-2-yl ester. (R)-]",704 nM
13,C[C@@](Cc1c[nH]c2ccccc12)(NC(=O)OC1C2CC3CC(C2)CC1C3)C(=O)NCCC(=O)N[C@H](Cc1ccccc1)C(N)=O (stereo partly shown) [Example 28],1400 nM

# Molecules with a lower Ki, results first:
row,Ki,SMILES
1,3.5 nM,"C[C@](Cc1c[nH]c2ccccc12)(NC(=O)OC1C2CC3CC(C2)CC1C3)C(=O)NC1CCCCC1C#N (stereo partly shown) [Example 116, Carbamic acid [2-[(2-cyanocyclohexyl)amino]-1-(1H-indol-3-ylmethyl)-1-methyl-2-oxoethyl]-1H-tricyclo-[3.3.1.1^3,7]dec-2-yl ester]"
2,2.5 nM,"COC[C@H]1CCCN1NC(=O)[C@@](C)(Cc1c[nH]c2ccccc12)NC(=O)OC1C2CC3CC(C2)CC1C3 (stereo partly drawn) [Example 113, Tricyclo [3.3.1.1^3,7]dec-2-yl [R-(R*,R*)]-[-(1H-indol-3-ylmethyl)-2-[[2-(methoxymethyl)-1-pyrrolidinyl]amino]-1-methyl-2-oxoethyl]carbamate]"
3,17 nM,CNC(=O)C1CCCCC1NC(=O)[C@@](C)(Cc1c[nH]c2ccccc12)NC(=O)OC1C2CC3CC(C2)CC1C3 (stereo partly shown) [Example 123]
4,23 nM,"CC(CNC(=O)O[C@@H]1C[C@@H]2CC[C@@]1(C)C2(C)C)(Cc1c[nH]c2ccccc12)C(=O)N[C@H](COC(=O)CCC(=O)O)Cc1ccccc1 (stereo partly drawn) [Example 56, Butanedioic acid, mono 2-[[2-(1H-indol-3-ylmethyl)-2-methyl-1-oxo-3-[[(1,7,7-trimethylbicyclo[2.2.1]hept-2-yloxy)carbonyl]-amino]propyl]amino]-3-phenylpropyl ester (Bicyclo system is 1S-endo, phenvlmethyl center is S. other center is RS)]"
5,2 nM,"CC(Cc1c[nH]c2ccccc12)(NC(=O)OC1C2CC3CC(C2)CC1C3)C(=O)NC1CCCCC1C(=O)O (stereo not shown) [Example 121, 2-[[3-(1H-indol-3-yl)-2-methyl-1-oxo-2-[[(tricyclo-[3.3.1.1^3,7]dec-2-yloxy)carbonyl]amino]propyl]amino]cyclohexanecarboxylic acid]"
6,1 nM,"C[C@](Cc1c[nH]c2ccccc12)(NC(=O)OC1C2CC3CC(C2)CC1C3)C(=O)NC1CCCCC1C(=O)O (stereo partly drawn) [Example 115, [1S-[α(S*),2B]] and [1R-[α(R*),28β]]^sP 2-[[3-(1H-indol-3-yl)-2-methyl-1-oxo-2-[(tricyclo[3.3.1.1^3,7]dec-2-yloxy)carbonyl]amino]propyl]amino]cyclhexanecarboxylic acid]"
